From the CheMixHub viscosity set

Test: xn = mol fraction of the nth substance listed

CCOC(C)=O + CCCCCCC
296 K, 101.3 kPa
Conditions | viscosity [mPa·s]
x1 = 0.0713 | 0.391
x1 = 0.1748 | 0.385
x1 = 0.2448 | 0.382
x1 = 0.3468 | 0.382
x1 = 0.4832 | 0.383
x1 = 0.4946 | 0.381
x1 = 0.5009 | 0.382
x1 = 0.5867 | 0.387
x1 = 0.6508 | 0.392
x1 = 0.7653 | 0.403
x1 = 0.8485 | 0.413
x1 = 0.8885 | 0.42

COC(=O)CC(C)=O + CCCCCCC(C)O
viscosity [mPa·s], 101.3 kPa
Conditions | x1 = 0.1041 | x1 = 0.2072 | x1 = 0.3091 | x1 = 0.4101 | x1 = 0.5107 | x1 = 0.6079 | x1 = 0.7081 | x1 = 0.807 | x1 = 0.9036
298.15 K | 4.231 | 3.315 | 2.753 | 2.358 | 2.075 | 1.9 | 1.699 | 1.574 | 1.52
303.15 K | 3.511 | 2.796 | 2.344 | 2.026 | 1.796 | 1.661 | 1.506 | 1.413 | 1.374
308.15 K | 2.939 | 2.377 | 2.015 | 1.756 | 1.567 | 1.476 | 1.352 | 1.279 | 1.251

CCCCCCCCCCCCCCCCCCCl + CCCCCCCCCC
298 K, 101.3 kPa
Conditions | viscosity [mPa·s]
x2 = 0.1067 | 6.162
x2 = 0.2123 | 5.192
x2 = 0.3131 | 4.379
x2 = 0.3996 | 3.651
x2 = 0.508 | 2.885
x2 = 0.6105 | 2.385
x2 = 0.7027 | 1.919
x2 = 0.8012 | 1.487
x2 = 0.8979 | 1.145

CCCCCCCCCCCC(=O)OC + CCCCCCCCCC(=O)OCC
viscosity [mPa·s], 100 kPa
Conditions | 298.15 K | 308.15 K | 318.15 K
x2 = 0.04836 | 2.784 | 2.203 | 1.856
x2 = 0.1051 | 2.725 | 2.165 | 1.824
x2 = 0.1954 | 2.649 | 2.106 | 1.778
x2 = 0.3128 | 2.556 | 2.041 | 1.723
x2 = 0.4082 | 2.482 | 1.988 | 1.677
x2 = 0.5008 | 2.417 | 1.945 | 1.639
x2 = 0.5987 | 2.348 | 1.897 | 1.601
x2 = 0.6571 | 2.307 | 1.87 | 1.582
x2 = 0.7044 | 2.274 | 1.849 | 1.567
x2 = 0.8 | 2.211 | 1.806 | 1.533
x2 = 0.8986 | 2.147 | 1.763 | 1.497
